US7547548B2, “Method for producing direct in vitro flowering and viable seed from cotyledon, radicle, and leaf explants, and plants produced therefrom” (University of Toledo, priority 2004, dated 2009)

Experiments:
cotyledon = assay: Shoot, fertile flower and viable seed production from in vitro developed shoots from cotyledon; assay type: cell-based, soybean; settings: BAP 3.0 mg/L without TDZ
Method: In this method, the isolated cotyledons from the germinated seed are plated on a cotyledon-shoot-flowering medium (which is another embodiment of the invention and is described below). A cotyledon-shoot flowering medium preferably comprises a cytokinin or mixtures thereof, such as BAP or combinations of cytokinins and a substituted phenylurea cytokinin analog such as TDZ or mixtures thereof. If desired, the cotyledon may be transformed at this time with any suitable technique known in the art. Preferably the abaxial side of the cotyledon is placed in contact with a cotyledon-shoot-flowering medium. Cultures are incubated at 24×2° C. under a 16/8-hour dark photoperiod provided by cool-white fluorescent lights at a quantum flux density of 30 μmol s^−1m^−2. Following a passage of time, typically, within four to six weeks, shoot initiation occurs on a cotyledon having been placed on a cotyledon-shoot-flowering medium. The shoot continues to grow and develop a flower bud within two to four weeks after shoot initiation. The explant is maintained on a cotyledon-shoot flowering medium for about 15 days and then transferred to MSB5 medium. Healthy soybean seeds are hand picked and washed with a few drops of soap (Linquinox, Fischer scientific, Pittsburgh, Pa.) for 10 minutes in running tap water. […]

cotyledonary explant = assay: Direct flower bud induction on cotyledon explants on MSB5 medium with growth regulators; assay type: cell-based, soybean
Method: Preferably before germination, the seeds are washed in running tap water with a drop of soap for 15 mins and sterilized with 70% ethyl alcohol for 1 min followed by a 10 minute treatment with 0.1% mercuric chloride and washed three times for 5 min intervals with sterile distilled water. Six seeds are germinated in each petriplate with MSB5 medium After germination on a MSB5 for a period of time, such as 3 days in the dark at 24±2° C., both the cotyledons are split and the radicle and embryo are removed. The isolated cotyledons from the seed are plated on cotyledon-flowering medium (which is another embodiment of the invention and is described in detail below). The cotyledon-flowering medium preferably comprises a substituted phenylurea cytokinin analog, such as TDZ and a cytokinin such as BAP.
If desired, the cotyledon may be transformed at this time with any suitable technique known in the art. Preferably the abaxial side of a cotyledon is placed in contact with a cotyledon-flowering medium. Cultures are incubated at 24±2° C. under a 16/8-hour […] photoperiod provided by cool-white fluorescent lights at a quantum flux density of 30 μmol s^−1m^−2.
Following a passage of time, typically within 3 weeks, flower bud initiation occurs on a cotyledon having been placed on a cotyledon-flowering medium. After about 3 weeks, cotyledons are transferred to MSB5 medium. The flower bud continues to grow on MSB5 medium to develop and produce viable seeds. During this time, cultures are incubated with necessary light-dark photoperiodic conditions to promote growth and to mimic natural growing conditions. Additionally, over time it may be necessary to subculture the explants with fresh MSB5 medium. See example 1 and FIGS, 1a-1d for direct viable-seed producing flower bud initiation on a soybean cotyledon.
Healthy soybean seeds are hand picked and washed with a few drops of soap (Linquinox, Fischer scientific, Pittsburgh, Pa.) for 10 minutes in running tap water. The seeds are then sterilized in 70% ethyl alcohol for 1 min and treated with 0.1% (w/v) mercuric chloride for 10 min. Sterilized seeds are again washed for three times at five minute intervals with sterilized distilled water, and plated six seed on each petri plate containing 20 ml of MSB5 medium. Three-day-old aseptic seedlings are used as the source material for explant preparation. Six isolated cotyledons are plated on each culture plate in such a way that the abaxial side in contact with the medium. MSB5 medium supplemented with different concentrations of TDZ (0.1, 0.5, 1.0, 2.0 and 5.0 mg/L) either alone, or in combination, with BAP (1.0-4.0 mg/L) are tested for flower induction. The media is augmented with 3% (w/v) sucrose and solidified with 0.56% agar (Phytotech Labs). The pH of the medium is adjusted to 5.8 with 0.1M NaOH or 0.1M HCl before autoclaving at 1.4 kg cm^−2 for 20 min at 121° C. The cultures are incubated in light-dark (16-8 hrs) photoperiodic conditions of cool-white-fluorescent light providing a quantum flux density of […] at 25±2° C. Explants with or without multiple flower buds are subcultured regularly at 20 days interval to fresh medium. Within 15 days of culture initiation, the bulging of cotyledons and induction of deep greenish unorganized structures from the proximal end is noticed.

[1] = tested on: Leaf segments from a petunia; assay: In vitro flowering from leaf explant of petunia; assay type: cell-based; settings: MS basal medium, TDZ 0.1, 0.5, 1.0, 2.0 and 5.0 mg/L alone; 4 weeks
Method: Leaf segments from a petunia were sterilized using the sterilization procedures described above and placed on MS basal medium supplemented with different concentrations of TDZ (0.1, 0.5, 1.0, 2.0 and 5.0 mg/L) either alone or in combination with BAP (3.0 mg/L) or on a MS basal medium with no hormones. […] A large number of flowers were induced on MS basal medium. FIG. 7 is a photograph showing in vitro flowering in a petunia.

SMILES | frequency of shoots, fertile flowers and viable seeds (cotyledon) | developmental outcome produced by cotyledon explants (cotyledonary explant; 3.0 mg/1 BAP) | flower induction and shoot induction (cotyledonary explant; TDZ 5.0 mg/L) | flower production on cotyledonary explants (cotyledonary explant; TDZ 1.0-2.0 mg/L without BAP) | number and frequency of flowers induced (cotyledonary explant; TDZ below 1.0 mg/L) | appearance of induced flowers (cotyledonary explant; medium containing only 1.0 to 2.0 mg/L TDZ) | flower bud induction [1]
c1ccc(CNc2ncnc3nc[nH]c23)cc1 [BAP, 6-benzylamino purine] | high frequency of shoots with low frequency of fertile flowers and viable seeds | only shoots |  |  |  |  | 
O=C(Nc1ccccc1)Nc1cnns1 [TDZ, 1-phenyl-3-(1,2,3-thiadiazol-5-yl)urea] |  |  | neither flower induction nor shoot induction was noticed | produces flowers on cotyledonary explants | fewer number of flowers and less frequently | short, vitrified and abnormal | Multiple flower buds were induced
